Measured values taken from patent publication US20260274892A1, “MACROCYCLIC BROAD SPECTRUM ANTIBIOTICS” (RQx Pharmaceuticals, Inc., priority 2017, published 2026).

Test system: Escherichia coli ATCC 25922
Test: Minimum inhibitory concentration (MIC), CLSI broth micro-dilution, E. coli
Format: cell-based
Conditions: Escherichia coli
Procedure: In vitro antimicrobial activity of each compound was determined by measuring minimal inhibitor concentrations (MICs) using the broth micro-dilution technique as approved by the Clinical and Laboratory Standards Institute (CLSI) (Methods for Dilution Antimicrobial Susceptibility Tests for Bacteria that Grow Aerobically; Approved Standard-Eighth Edition. CLSI document M07-A8. Wayne, PA: Clinical and Laboratroy Standards; 2009). Antibacterial activity was measure against two strains of bacteria: a Methicillin Resistant Staphylococcus aureus strain USA 200, (S. aureus) and Escherichia coli ATCC 25922 (E. coli), a clinically relevant Gram-negative strain. Cells were inoculated onto plates of Trypyticase Soy Agar or Luria Agar respectively and grown at 35° C. for 20 hours. Inocula suspensions were prepared by scraping cells into 1 mL of testing media (cation adjusted Mueller Hinton Broth supplemented with 0.002% v/v Tween-80) and diluting to a final OD600nm of 0.01.
Test compounds were prepared in DMSO at a concentration of 10 mg/mL. In protocol 1, the compound stocks were diluted into testing media at a concentration of 64 µg/ml and serial 2-fold dilutions were made in the same media, in 96-well U bottom microtiter dishes, for a total of 10 compound concentrations. In protocol 2, the compound stocks were diluted into testing media at a concentration of 4 µg/mL and serial 2-fold dilutions were made in the same media, in 96-well U bottom microtiter dishes, for a total of 10 compound concentrations. In protocol 3, compound stocks were diluted into testing media at a concentration of 0.5 μg/mL, with serial 2-fold dilutions conducted as described above. In protocol 4, compound stocks were diluted into testing media at a concentration of […], with serial 2-fold dilutions conducted as described above. Inocula suspensions were added to the 2-fold serial dilutions of test compounds to a final density of GD OD600nm of 0.0005 and incubated at 35° C. for 22 hours.

[1] = ATCC25922, 22 h, Table 7, cation adjusted Mueller Hinton Broth + 0.002% Tween-80, 35° C.
[2] = ATCC25922, Table 6, cation adjusted Mueller Hinton Broth + 0.002% Tween-80, 35° C., 22 hours

Structure (SMILES)	MIC [1] [µM]	MIC [2] [µM]	further results
Cc1cc(C(C)(C)C)ccc1-c1ccc(C(=O)N[C@@H](CCN)C(=O)N(C)[C@@H]2C(=O)N[C@@H](C)C(=O)N[C@H](C(=O)NCC#N)Cc3ccc(OCCN)c(c3)-c3cc2ccc3OCCN)c(C)n1 (racemic) [Compound 210, rac-(8S,11S,14S)-3,18-bis(2-aminoethoxy)-N-(cyanomethyl)-11-methyl-14-[methyl-[rac-(2S)-4-amino-2-[[6-(4-tert-butyl-2-methyl-phenyl)-2-methyl-pyridine-3-carbonyl]amino]butanoyl]amino]-10,13-dioxo-9,12-diazatricyclo[13.3.1.12,6]icosa-1(18),2(20),3,5,15(19),16-hexaene-8-carboxamide]		0.35	
Cc1nc(-c2ccc(C3(C4CCCC4)CC3)cc2)nc(C)c1C(=O)N[C@@H](CCN)C(=O)N(C)[C@@H]1C(=O)N[C@@H](C)C(=O)N[C@H](C(=O)NCC#N)Cc2ccc(OCCN)c(c2)-c2cc1ccc2OCCN (racemic) [Compound 286, rac-(8S,11S,14S)-3,18-bis(2-aminoethoxy)-N-(cyanomethyl)-11-methyl-14-[methyl-[rac-(2S)-4-amino-2-[[2-[4-(1-cyclopentylcyclopropyl)phenyl]-4,6-dimethyl-pyrimidine-5-carbonyl]amino]butanoyl]amino]-10,13-dioxo-9,12-diazatricyclo[13.3.1.12,6]icosa-1(18),2(20),3,5,15(19),16-hexaene-8-carboxamide]		0.13	
Cc1nc(-c2ccc(OC3CCCCC3)cc2)nc(C)c1C(=O)N[C@@H](CCN)C(=O)N(C)[C@@H]1C(=O)N[C@@H](C)C(=O)N[C@H](C(=O)NCC#N)Cc2ccc(OCCN)c(c2)-c2cc1ccc2O (racemic) [Compound 522, rac-(8S,11S,14S)-3-(2-aminoethoxy)-N-(cyanomethyl)-18-hydroxy-11-methyl-14-[methyl-[rac-(2S)-4-amino-2-[[2-[4-(cyclohexoxy)phenyl]-4,6-dimethyl-pyrimidine-5-carbonyl]amino]butanoyl]amino]-10,13-dioxo-9,12-diazatricyclo[13.3.1.12,6]icosa-1(18),2(20),3,5,15(19),16-hexaene-8-carboxamide]			MIC (ATCC25922, 22 h, Table 6, cation adjusted Mueller Hinton Broth + 0.002% Tween-80, 35° C.): 0.13 µM

Continued, in another order:

MIC [1] [µM]	Structure (SMILES)	MIC [2] [µM]	further results
0.21	Cc1nc(-c2ccc(C(C)(C)C)cc2)nc(C)c1C(=O)N[C@@H](CNS(N)(=O)=O)C(=O)N(C)[C@@H]1C(=O)N[C@@H](C)C(=O)N[C@H](C(=O)NCC#N)Cc2ccc(OC[C@H](O)CN)c(c2)-c2cc1ccc2OC[C@H](O)CN (racemic) [Compound 577, rac-(8S,11S,14S)-N-(cyanomethyl)-11-methyl-14-[methyl-[rac-(2S)-2-[[2-(4-tert-butylphenyl)-4,6-dimethyl-pyrimidine-5-carbonyl]amino]-3-(sulfamoylamino)propanoyl]amino]-10,13-dioxo-3,18-bis[rac-(2R)-3-amino-2-hydroxy-propoxy]-9,12-diazatricyclo[13.3.1.12,6]icosa-1(18),2(20),3,5,15(19),16-hexaene-8-carboxamide]		
0.31	Cc1nc(-c2ccc(C(C)(C)C)cc2)nc(C)c1C(=O)N[C@@H](CNS(N)(=O)=O)C(=O)N(C)[C@@H]1C(=O)N[C@@H](C)C(=O)N[C@H](C(=O)NCC#N)Cc2ccc(OCCCN)c(c2)-c2cc1ccc2OCCCN (racemic) [Compound 575, rac-(8S,11S,14S)-3,18-bis(3-aminopropoxy)-N-(cyanomethyl)-11-methyl-14-[methyl-[rac-(2S)-2-[[2-(4-tert-butylphenyl)-4,6-dimethyl-pyrimidine-5-carbonyl]amino]-3-(sulfamoylamino)propanoyl]amino]-10,13-dioxo-9,12-diazatricyclo[13.3.1.12,6]icosa-1(18),2(20),3,5,15(19),16-hexaene-8-carboxamide]		
